Counter-ions that a name gives are not always drawn.
Key:
S.epidermidis = assay: Quantitative germ count (re-isolation, surface method) after inoculating the test preparation; format: cell-based; conditions: Ausgangskeimzahl 2,1 x 10^5 KBE/ml
In short: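 Test preparations were contaminated with ca. 10^5 CFU/ml of each strain, then sampled at 2, 6, 8, 24, 32, 48 and 72 h. Cells were centrifuged 10 min at 3000 rpm, washed in NaCl-peptone buffer, resuspended and spiral-plated on Caso agar at 33±2°C for max. 4 days. Detection limit was 100 CFU/ml.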

Alle Testkeime = assay: Overall assessment: time until all test germs are eliminated (count and enrichment); format: cell-based; conditions: time after inoculation; all six test germs
Experimental: Escherichia (E.coli) Staphylococcus (S.aureus) Streptococcus (Sc.) Pneumoniae Pseudomonas (P.aeruginosa) Staphylococcus (S. epidermidis) Haemophilus (H. influenzae)
Die verschiedenen Testsubstanzen a. bis j. wurden jeweils zu 5 ml in sterile Zentrifugenröhrchen abgefüllt und mit ca. 10^5 KBE^*/ml (* = koloniebildende Einheiten) der oben genannten Testkeime kontaminiert. Pro Substanz wurde für jeden Testkeim und jede zu prüfende Testzeit ein separater Ansatz angeimpft, d.h.10 Testsubstanzen zu jeweils 7 Testzeiten und 6 Testkeime (= insgesamt 502 Testansätze). Nach 2, 6, 8, 24, 32, 48 und 72 Stunden wurde dann der jeweilige Testansatz 10 Minuten bei 3000 rpm abzentrifugiert. Der Überstand wurde dekantiert und das Pellet in 5 ml NaCl Peptonpuffer aufgenommen und resuspendiert. Die Suspension wurde erneut 10 Minuten bei 3000 rpm abzentrifugiert und 5 ml NaCl-Peptonpuffer aufgenommen und mittels Vortex homogenisiert.
Die anschließende Keimzahlbestimmung erfolgte im Oberflächenverfahren durch Ausspiralisieren eines 10011 Aliquots auf Caso-Agar bzw. für H. influenzae auf Kochblut-Agar. Die Platten wurden bei 33±2°C für max. 4 Tage bebrütet. Die Nachweisgrenze des Verfahrens liegt bei 100 KBE/ml.
Jeweils 2 ml der Testansätze wurden in 20 ml Caso-Bouillon oder für H. influenzae, in Fildes-Medium der Firma Becton Dickinson, ARt. […]

| Compound | Ergebnis der Reisolierung (in KBE/ml) (S.epidermidis; 2 h after inoculation) | Ergebnis der Reisolierung (in KBE/ml) (S.epidermidis; 4 h after inoculation) | Ergebnis der Reisolierung (in KBE/ml) (S.epidermidis; 6 h after inoculation) | Ergebnis der Reisolierung (in KBE/ml) (S.epidermidis; 8 h after inoculation) | Ergebnis der Reisolierung (in KBE/ml) (S.epidermidis; 24 h after inoculation) | Ergebnis der Reisolierung (in KBE/ml) (S.epidermidis; 32 h after inoculation) | Ergebnis der Reisolierung (in KBE/ml) (S.epidermidis; 48 h after inoculation) | Ergebnis der Reisolierung (in KBE/ml) (S.epidermidis; 72 h after inoculation) | Testkeime nach Inokulation der Zubereitung auch qualitativ nicht mehr nachweisbar (Alle Testkeime) |
| --- | --- | --- | --- | --- | --- | --- | --- | --- | --- |
| O=C(O)c1cn(C2CC2)c2cc(N3CCNCC3)c(F)cc2c1=O [Ciprofloxacin HCl 0,35 Gew.-%, Ciprofloxacin HCl, reference compound] | <100 KBE/ml | <100 KBE/ml | <100 KBE/ml | <100 KBE/ml | <100 KBE/ml | <100 KBE/ml | <100 KBE/ml | <100 KBE/ml |  |
| Benzalkoniumchlorid [Benzalkoniumchlorid 0,006 Gew.-%] | <100 KBE/ml | <100 KBE/ml | <100 KBE/ml | <100 KBE/ml | <100 KBE/ml | <100 KBE/ml | <100 KBE/ml | <100 KBE/ml |  |
| Benzalkoniumchlorid [Benzalkoniumchlorid 0,001 Gew.-%] | <100 KBE/ml | <100 KBE/ml | <100 KBE/ml | <100 KBE/ml | <100 KBE/ml | <100 KBE/ml | <100 KBE/ml | <100 KBE/ml |  |
| CCCCCCCCCCCC[N+](C)(C)Cc1ccccc1 [Benzalkoniumchlorid 0,005 Gew.-%, Benzododeciniumchlorid] | <100 KBE/ml | <100 KBE/ml | <100 KBE/ml | <100 KBE/ml | <100 KBE/ml | <100 KBE/ml | <100 KBE/ml | <100 KBE/ml |  |
| CC1COc2c(N3CCN(C)CC3)c(F)cc3c(=O)c(C(=O)O)cn1c23 (stereo not shown) [Ofloxacin 0,3 Gew.-%, Ofloxacin, reference compound] | <100 KBE/ml | <100 KBE/ml | <100 KBE/ml | <100 KBE/ml | <100 KBE/ml | <100 KBE/ml | <100 KBE/ml | <100 KBE/ml | 24 Stunden |
| Benzalkoniumchlorid [Benzalkoniumchlorid 0,0025 Gew.-%] | <100 KBE/ml | <100 KBE/ml | <100 KBE/ml | <100 KBE/ml | <100 KBE/ml | <100 KBE/ml | <100 KBE/ml | <100 KBE/ml |  |

From patent EP1171107B1, “USE OF A PHARMACEUTICAL COMPOSITION IN THE MANUFACTURE OF A MEDICAMENT FOR THE TREATMENT OF PATHOLOGICAL CONDITIONS OF THE EYE CAUSED BY BACTERIA, VIRUSES, FUNGI, YEASTS AND PROTOZOA” (Dr. GERHARD MANN chem.-pharm. Fabrik GmbH, priority 1999, dated 2000)
